Results reported in patent US10562869B2, “Oxadiazole compounds” (REMYND NV, priority 2014, dated 2020).

tested on: M17_3TAU(P301L) cells; assay: Retinoic acid-induced cytotoxicity (LDH) in TAU-P301L expressing M17_3TAU(P301L) neuroblastoma cells; type: cell-based; conditions: Homo sapiens, Neuroblastoma cell, 168 h; toxicity inhibition (LDH) in M17_3TAU(P301L) cells challenged with retinoic acid, 7 days
From the text: A TAU expression plasmid was constructed by sub-cloning the cDNA encoding for human TAU-P301L protein, wherein proline at position 301 was substituted by a leucine residue, into mammalian expression vector pcDNA3.1 resulting in the plasmid pcDNA3.1-TAUP301L. Plasmid pcDNA3.1-TAU P301L was transfected into human neuroblastoma cells (BE-M17; ATCC No. CRL-2267™) using lipofectamine reagent and subsequently, independent clonal cell lines with the plasmids stably integrated into the genome were selected by antibiotic resistance selection (Geneticin (G418)), resulting in cell line M17_3TAUP301L. Expression of the TAUP301L gene in the M17_3TAUP301L cells was confirmed by Western blot analysis.
M17_3TAU(P301L) cells were treated chronically with retinoic acid (RA) in low serum conditions to induce Alzheimer's disease-like intracellular signaling deregulation leading to increased TAU levels and subsequent cell death. Cytotoxicity of cells was measured by quantification of lactate dehydrogenase (LDH) levels. In dead cells LDH leaked out of the cells into the medium due to a loss of plasma-membrane integrity.
3 days preceding the experiment, a pre-culture of M17_3TAU(P301L) cells was prepared, starting from a stock culture, at a density of 50.000-100.000 cells/cm^2 in culture medium (Optimem Reduced Serum with phenol red (Invitrogen, Cat. 31985-047)) supplemented with 10% fetal calf serum (FCS), 1 mM sodium pyruvate, 1×non-essential amino acids (NEAA), 500 μg/ml G418 and 0.5×(ABAM). At the day of the experiment these precultures were diluted to ˜0.1·10^6 cells/ml in detection medium (Optimem Reduced Serum without phenol red (Gibco, Cat.11058-021) supplemented with 1% fetal calf serum (FCS), 1 mM sodium pyruvate, 1×non-essential amino acids (NEAA), 500 μg/ml G418 and 0.5×ABAM) and 60 μL of this suspension was dispensed per well into a 96-well microtiter plate. After 3 hours of incubation at 37° C./5% CO2 an equal volume of detection medium (without FCS) containing 3.75 μM RA was added and subsequently incubated for 7 days at 37° C./5% CO2. Then LDH activity was determined using the Promega Cytotox 96 Non-Radioactive cytotoxicity assay (Cat. G1780), according to the manufacturer's instructions. Cytotoxicity was defined as the ratio of LDH relative the total LDH in the cells and supernatant.
The assay described above using the M17_3TAU(P301L) cell line allowed to screen compounds for their ability to decrease cytotoxicity in RA-challenged cells. Compounds of the invention were tested for their ability to decrease toxicity at different concentrations, ranging from low non-effective concentrations to high potent concentrations. Afterwards, the dose-dependent inhibition curve was used to calculate their EC50. A compound was considered to be active in this test when it inhibited toxicity by more than 20% relative to untreated M17_3TAU(P301L) cells at a concentration of 10 μM or lower.

SMILES | EC50
Fc1ccc(-c2noc(N3CCN(Cc4ccccc4Cl)CC3)n2)cc1F [Cmpd035, 5-(4-(2-Chlorobenzyl)piperazin-1-yl)-3-(3,4-difluorophenyl)-1,2,4-oxadiazole] | 0.024 µM
Clc1ccc(CCN2CCN(c3nc(-c4ccccc4)no3)CC2)cc1 [Cmpd003, 5-(4-(4-Chlorophenethyl)piperazin-1-yl)-3-phenyl-1,2,4-oxadiazole] | 0.012 µM
COc1cccc(CCN2CCN(c3nc(Cc4ccc(Cl)cc4)no3)CC2)c1 [Cmpd056, 1-[3-(4-Chloro-benzyl)-[1,2,4]oxadiazol-5-yl]-4-[2-(3-methoxy-phenyl)-ethyl]-piperazine] | 0.075 µM
COc1cc(CCN2CCN(c3nc(C4(c5ccccc5)CC4)no3)CC2)ccn1 [Cmpd131, 5-(4-(2-(2-Methoxypyridin-4-yl)ethyl)piperazin-1-yl)-3-(1-phenylcyclopropyl)-1,2,4-oxadiazole] | 0.135 µM
CC(C)N1CCN(c2nc(Cc3ccc(Cl)cc3)no2)CC1 [Cmpd071, 3-(4-Chlorobenzyl)-5-(4-isopropylpiperazin-1-yl)-1,2,4-oxadiazole] | 0.133 µM
Cc1ccc(CN2CCN(c3nc(C4C[C@@H]5CC[C@H]4C5)no3)CC2)cc1 (stereo partly drawn) [Cmpd185, 3-((1S,4R)-bicyclo[2.2.1]heptan-2-yl)-5-(4-(4-methylbenzyl)piperazin-1-yl)-1,2,4-oxadiazole] | 0.071 µM
Cc1ccc(-c2noc(N3CCN(Cc4ccc5c(c4)OCO5)CC3)n2)cc1 [Cmpd007, 5-(4-(Benzo[d][1,3]dioxol-5-ylmethyl)piperazin-1-yl)-3-(p-tolyl)-1,2,4-oxadiazole] | 0.352 µM
Cc1ccc(-c2noc(N3CCN(Cc4ccccc4C)CC3)n2)cc1 [Cmpd010, 5-(4-(2-Methylbenzyl)piperazin-1-yl)-3-(p-tolyl)-1,2,4-oxadiazole] | 0.306 µM
Fc1ccc(C(F)(F)c2noc(N3CCN(Cc4ccc5c(c4)OCO5)CC3)n2)cc1 [Cmpd149, 5-(4-(Benzo[d][1,3]dioxol-5-ylmethyl)piperazin-1-yl)-3-(difluoro(4-fluorophenyl)methyl)-1,2,4-oxadiazole] | 0.849 µM
Cc1ccccc1CN1CCN(c2nc(Cc3cccc(Cl)c3)no2)CC1 [Cmpd075, 1-[3-(3-Chloro-benzyl)-[1,2,4]oxadiazol-5-yl]-4-(2-methyl-benzyl)-piperazine] | 0.238 µM
c1ccc(-c2noc(N3CCN(CCN4CCOCC4)CC3)n2)cc1 [Cmpd005, 4-(2-(4-(3-Pphenyl-1,2,4-oxadiazol-5-yl)piperazin-1-yl)ethyl)morpholine] | 0.041 µM
FC(F)(F)CCCN1CCN(c2nc(Cc3ccc(Cl)cc3)no2)CC1 [Cmpd068, 1-[3-(4-Chloro-benzyl)-[1,2,4]oxadiazol-5-yl]-4-(4,4,4-trifluoro-butyl)-piperazine] | 0.151 µM
CC(C)CCN1CCN(c2nc(C3(c4ccccc4)CC3)no2)CC1 [Cmpd133, 5-(4-Isopentylpiperazin-1-yl)-3-(1-phenylcyclopropyl)-1,2,4-oxadiazole] | 0.03 µM
Cc1ccc(CN2CCN(c3nc(Cc4ccc(Cl)cc4)no3)CC2)cc1 [Cmpd063, 1-[3-(4-Chloro-benzyl)-[1,2,4]oxadiazol-5-yl]-4-(4-methyl-benzyl)-piperazine] | 0.174 µM
CC(C)CCN1CCN(c2nc(CCC(F)(F)F)no2)CC1 [Cmpd179, 5-(4-Isopentylpiperazin-1-yl)-3-(3,3,3-trifluoropropyl)-1,2,4-oxadiazole] | 0.046 µM
COc1cccc(CCN2CCN(c3nc(C4(c5ccc(F)cc5)CC4)no3)CC2)c1 [Cmpd109, 3-(1-(4-Fluorophenyl)cyclopropyl)-5-(4-(3-methoxyphenethyl)piperazin-1-yl)-1,2,4-oxadiazole] | 0.487 µM
COc1cccc(CCN2CCN(c3nc(-c4ccc(Cl)cc4)no3)CC2)c1 [Cmpd021, 3-(4-Chlorophenyl)-5-(4-(3-methoxyphenethyl)piperazin-1-yl)-1,2,4-oxadiazole] | 0.005 µM
COc1cccc(CCN2CCN(c3nc(Cc4cccc(F)c4)no3)CC2)c1 [Cmpd090, 1-[3-(3-Fluoro-benzyl)-[1,2,4]oxadiazol-5-yl]-4-[2-(3-methoxy-phenyl)-ethyl]-piperazine] | 0.037 µM
